From paper PMC2784146 (Nature, 2009)

Columns and labels:
[1] = test system: carbonic anhydrase II; conditions: ref WOMBAT (26); cited from earlier work
[2] = target: μ Opioid receptor (Homo sapiens, UniProt P35372); assay: biochemical; type: binding
[3] = target: 5-HT1D receptor (Homo sapiens, UniProt P28221); conditions: ref Supplementary Table 3; cited from earlier work
[4] = target: T1, α2A adrenergic receptor (Homo sapiens, UniProt P08913); assay: Radioligand competition binding, α2A
T1 sequence (P08913 1-465): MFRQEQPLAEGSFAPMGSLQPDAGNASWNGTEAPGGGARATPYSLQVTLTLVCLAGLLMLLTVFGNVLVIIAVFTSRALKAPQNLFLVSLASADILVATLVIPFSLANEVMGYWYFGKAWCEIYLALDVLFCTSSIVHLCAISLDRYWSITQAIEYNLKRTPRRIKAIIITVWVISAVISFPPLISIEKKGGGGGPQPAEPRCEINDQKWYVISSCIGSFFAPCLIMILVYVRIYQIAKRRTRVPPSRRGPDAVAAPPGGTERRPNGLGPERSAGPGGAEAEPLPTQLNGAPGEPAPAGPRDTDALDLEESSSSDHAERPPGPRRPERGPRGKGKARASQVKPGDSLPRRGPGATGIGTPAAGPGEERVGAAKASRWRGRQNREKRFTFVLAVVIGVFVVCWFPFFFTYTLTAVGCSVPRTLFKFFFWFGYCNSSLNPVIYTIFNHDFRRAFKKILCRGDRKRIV

[5] = target: σ1 receptor; conditions: read-out: Kd for σ1; cited from earlier work
[6] = target: human 5-HT2A receptor (Homo sapiens, UniProt P28223); assay: cell-based
[7] = average; cited from earlier work
[8] = target: Histamine H4 receptor (Homo sapiens, UniProt Q9H3N8); assay: biochemical; type: binding
[9] = test system: hERG channel; conditions: cited from earlier work
[10] = test system: adrenergic α2; conditions: ref Supplementary Table 3; cited from earlier work

human 5-HT2A receptor, sequence (P28223 whole entry): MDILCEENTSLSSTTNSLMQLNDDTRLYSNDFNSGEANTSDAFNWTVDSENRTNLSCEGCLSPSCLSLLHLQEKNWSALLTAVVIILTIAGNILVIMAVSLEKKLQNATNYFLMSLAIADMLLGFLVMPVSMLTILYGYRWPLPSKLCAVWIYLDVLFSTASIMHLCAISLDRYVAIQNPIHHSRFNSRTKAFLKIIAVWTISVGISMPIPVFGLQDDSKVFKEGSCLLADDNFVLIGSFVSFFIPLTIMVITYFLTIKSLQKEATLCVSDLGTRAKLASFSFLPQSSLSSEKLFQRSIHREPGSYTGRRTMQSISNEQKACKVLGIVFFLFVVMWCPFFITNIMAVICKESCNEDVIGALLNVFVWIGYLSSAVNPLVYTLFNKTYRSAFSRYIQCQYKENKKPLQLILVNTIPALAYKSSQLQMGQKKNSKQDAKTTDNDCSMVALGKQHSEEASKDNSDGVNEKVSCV
Histamine H4 receptor, sequence (Q9H3N8 whole entry, species assumed): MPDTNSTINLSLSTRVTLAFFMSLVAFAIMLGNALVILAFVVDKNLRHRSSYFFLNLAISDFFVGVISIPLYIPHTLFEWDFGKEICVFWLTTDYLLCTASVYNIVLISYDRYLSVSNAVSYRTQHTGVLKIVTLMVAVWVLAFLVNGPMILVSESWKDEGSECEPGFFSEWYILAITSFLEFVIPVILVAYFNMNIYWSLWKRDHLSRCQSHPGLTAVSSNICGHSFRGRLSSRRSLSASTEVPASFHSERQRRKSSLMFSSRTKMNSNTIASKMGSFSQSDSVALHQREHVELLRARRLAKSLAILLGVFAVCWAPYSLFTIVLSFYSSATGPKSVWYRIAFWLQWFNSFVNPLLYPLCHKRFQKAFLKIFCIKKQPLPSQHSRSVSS
μ Opioid receptor, sequence (P35372 whole entry, species assumed): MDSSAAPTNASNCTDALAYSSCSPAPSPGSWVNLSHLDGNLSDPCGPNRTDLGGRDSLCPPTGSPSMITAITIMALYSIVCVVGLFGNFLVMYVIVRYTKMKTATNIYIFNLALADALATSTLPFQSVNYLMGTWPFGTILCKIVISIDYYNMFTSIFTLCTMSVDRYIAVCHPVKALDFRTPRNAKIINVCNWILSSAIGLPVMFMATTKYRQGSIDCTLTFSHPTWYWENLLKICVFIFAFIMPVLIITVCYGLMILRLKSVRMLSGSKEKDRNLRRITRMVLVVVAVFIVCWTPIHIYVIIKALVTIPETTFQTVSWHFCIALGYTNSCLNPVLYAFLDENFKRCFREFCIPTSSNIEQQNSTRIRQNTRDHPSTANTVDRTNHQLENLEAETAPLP
5-HT1D receptor, sequence (P28221 whole entry): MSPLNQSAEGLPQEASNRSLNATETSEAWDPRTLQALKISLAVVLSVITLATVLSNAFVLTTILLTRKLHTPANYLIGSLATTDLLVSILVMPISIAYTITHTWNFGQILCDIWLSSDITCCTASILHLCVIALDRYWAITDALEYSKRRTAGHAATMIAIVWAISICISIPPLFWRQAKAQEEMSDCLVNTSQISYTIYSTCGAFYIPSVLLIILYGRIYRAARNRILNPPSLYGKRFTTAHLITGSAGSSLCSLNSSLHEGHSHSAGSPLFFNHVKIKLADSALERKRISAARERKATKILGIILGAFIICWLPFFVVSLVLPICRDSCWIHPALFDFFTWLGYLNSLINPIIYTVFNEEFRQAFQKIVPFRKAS

For `CCN[C@H]1CN(CCCOC)S(=O)(=O)c2sc(S(N)(=O)=O)cc21` [Azopt, brinzolamide], the “binds carbonic anhydrase II at” value [1] is listed as 3 nM.
Compound `CC(C(O)c1ccc(O)cc1)N1CCC(Cc2ccccc2)CC1` (stereo not shown) [Vadilex, Ifenprodil] has a Ki [2] of 1.4 µM.
For `CCCN1C[C@H](CSC)C[C@@H]2c3cccc4[nH]cc(c34)C[C@H]21` [Permax, pergolide], the “reported to bind the 5-HT1D receptor at” value [3] is given as 13 nM.
Work on `COc1cc2c(cc1OC)C1CC(=O)C(CC(C)C)CN1CC2` (stereo not shown) [Xenazine] yielded a Ki [4] of 0.96 µM.
In the case of `CN(C)CCc1c[nH]c2ccccc12` [DMT, N,N-dimethyltryptamine], the Kd [5] is listed as 14.8 µM and the EC50 [6] is listed as 0.118 ± 0.029 µM.
In the case of `CC(C)Nc1cccnc1N1CCN(C(=O)c2cc3cc(NS(C)(=O)=O)ccc3[nH]2)CC1` [Rescriptor, Delavirdine], the “steady-state plasma concentration Cmin” value [7] is given as 15 µM and the Ki [8] is given as 5.3 µM.
For `O=c1[nH]c2ccccc2n1CCCN1CCC(n2c(=O)[nH]c3cc(Cl)ccc32)CC1` [Motilium], the IC50 [9] is given as 5 µM.
In the case of `CCN(CC)C(=O)N[C@H]1C=C2c3cccc4[nH]cc(c34)C[C@H]2N(C)C1` [Revanil, lisuride], the “reported to bind adrenergic α2 at” value [10] is listed as 0.055 nM.
